Test results reported in PMC12720098, “Prolintane analogs as hybrid monoamine transporter ligands: Structural determinants and species differences” (The Journal of Biological Chemistry, 2025).
Like-named read-outs stand apart in the source and are kept apart here.

What was measured:
[1] = tested on: humans; parameters: method as in PMID 4392006, PMID 7437258; settings: dose range of 10–30 mg ref 15, 16; cited from earlier work
[2] = target: rSERT (Rattus norvegicus, UniProt P31652); assay type: cell-based; parameters: expressed in transfected cells; settings: for Mean diff, rSERT efflux ± Mon (Šídák's multiple comparisons test): drug alone vs drug + monensin (Mon)
Sequence of rSERT (P31652 whole entry, the tested form may be a part): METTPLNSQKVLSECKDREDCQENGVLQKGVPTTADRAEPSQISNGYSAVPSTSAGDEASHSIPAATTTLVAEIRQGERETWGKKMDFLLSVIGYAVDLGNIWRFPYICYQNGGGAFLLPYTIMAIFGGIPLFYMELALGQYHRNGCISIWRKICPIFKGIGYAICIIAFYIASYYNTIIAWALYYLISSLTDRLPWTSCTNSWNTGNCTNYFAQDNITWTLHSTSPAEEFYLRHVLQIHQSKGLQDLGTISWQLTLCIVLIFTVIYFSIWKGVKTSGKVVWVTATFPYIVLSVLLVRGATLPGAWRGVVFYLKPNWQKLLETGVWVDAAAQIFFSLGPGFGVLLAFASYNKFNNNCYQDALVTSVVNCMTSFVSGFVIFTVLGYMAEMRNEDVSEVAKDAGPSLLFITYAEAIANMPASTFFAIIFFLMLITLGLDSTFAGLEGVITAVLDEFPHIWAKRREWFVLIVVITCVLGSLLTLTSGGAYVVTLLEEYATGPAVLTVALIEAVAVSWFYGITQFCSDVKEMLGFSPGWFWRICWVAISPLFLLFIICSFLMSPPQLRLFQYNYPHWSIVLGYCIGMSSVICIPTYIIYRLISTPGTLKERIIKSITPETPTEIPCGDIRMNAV
Method: A day prior to the experiment, HEK293 cells stably expressing hSERT or rat SERT (rSERT) were seeded at a density of 100,000 cells per channel into 6 channel flow ibidi slides (Gräfelfing, Germany). On the day of the experiments, cells were preloaded with 0.1 μM [^3H]5-HT at 37 °C, 5% CO2 for 20 min. Subsequently, the slides were transferred to the superfusion apparatus ([59]). Cells were then washed with KHB for 15 min under a constant flow of 0.5 ml/min. Fractions were collected every 2 min in 8 ml vials containing 2 ml scintillation cocktail. Collection began with three baseline fractions using KHB, followed by four additional basal release fractions with KHB, either with or without 10 μM monensin. […] To assess residual radioactivity within the cells, they were lysed with 1% sodium dodecyl sulfate (SDS), and three final fractions were obtained. The measured tritiated substrate in each fraction was expressed as a percentage of the initial tritiated substrate present at the start of that fraction.
Uptake inhibition data were evaluated by one-way ANOVA followed by Tukey's multiple comparisons test. Release data were analyzed using a two-way ANOVA (batch release) or a mixed-effects model with Geisser-Greenhouse correction (time-dependent traces) employing Šidák correction for comparing differences between compounds with or without the addition of monensin.

CCCC(Cc1ccccc1)N1CCCC1 (centres unmarked) [Prolintane, 1-(1-phenylpentan-2-yl)pyrrolidine]
clinical effects [1]: dose-dependent psychostimulant effects, sympathomimetic effects and reduced total rapid eye movement (REM) sleep
Mean diff, rSERT efflux ± Mon (Šídák's multiple comparisons test) ([2]; Row 1 (time fraction)): -0.3272
Mean diff, rSERT efflux ± Mon (Šídák's multiple comparisons test) ([2]; Row 2 (time fraction)): -0.2896
Mean diff, rSERT efflux ± Mon (Šídák's multiple comparisons test) ([2]; Row 3 (time fraction)): -0.1547
Mean diff, rSERT efflux ± Mon (Šídák's multiple comparisons test) ([2]; Row 4 (time fraction)): -0.119
Mean diff, rSERT efflux ± Mon (Šídák's multiple comparisons test) ([2]; Row 5 (time fraction)): -0.6706
Mean diff, rSERT efflux ± Mon (Šídák's multiple comparisons test) ([2]; Row 6 (time fraction)): -0.9234
Mean diff, rSERT efflux ± Mon (Šídák's multiple comparisons test) ([2]; Row 7 (time fraction)): -1.427
Mean diff, rSERT efflux ± Mon (Šídák's multiple comparisons test) ([2]; Row 8 (time fraction)): -2.621
Mean diff, rSERT efflux ± Mon (Šídák's multiple comparisons test) ([2]; Row 9 (time fraction)): -2.612
Mean diff, rSERT efflux ± Mon (Šídák's multiple comparisons test) ([2]; Row 10 (time fraction)): -2.362
Mean diff, rSERT efflux ± Mon (Šídák's multiple comparisons test) ([2]; Row 11 (time fraction)): -2.416
Mean diff, rSERT efflux ± Mon (Šídák's multiple comparisons test) ([2]; Row 12 (time fraction)): -2.279
[3H]5-HT releasing profile in cells expressing rSERT ([2]; superfusion, HEK293 cells, with and without monensin): almost identical pseudo-efflux releasing profile
